Legend:
FIFO = conditions: cited from earlier work
[1] = test system: mitochondrial FIFO ATP synthase; conditions: cited from earlier work
isolated rat hearts = conditions: during ischemia; cited from earlier work
[2] = test system: β-cell apical anion exchange; conditions: read-out: block β-cell apical anion exchange (IC50); cited from earlier work
[3] = test system: monocarboxylic acid transport; conditions: cited from earlier work
[4] = test system: brush-border membrane vesicles; conditions: cited from earlier work
Mg2+-ATPase = conditions: cited from earlier work
[5] = test system: mitochondrial superoxide production; conditions: cited from earlier work
background K+ current = conditions: cited from earlier work
β-amyloid = conditions: cited from earlier work
[6] = test system: plasma and mitochondrial membranes; conditions: cited from earlier work
neoplastic cells = conditions: by interfering with hexokinase and disrupting uncoupler-stimulated mitochondrial electron transport; cited from earlier work
succinate oxidase = conditions: mitochondria preparations of S. cerevisiae; cited from earlier work
NADH oxidase = conditions: mitochondria preparations of S. cerevisiae; cited from earlier work
[7] = test system: NADH-cytochrome C reductase; conditions: mitochondria preparations of S. cerevisiae; cited from earlier work
[8] = test system: succinate cythochrome C reductase; conditions: mitochondria preparations of S. cerevisiae; cited from earlier work
[9] = test system: NADH:ubiquinone oxidoreductase; conditions: cited from earlier work
HL-1 = conditions: cited from earlier work
[10] = target: mitochondrial outer membrane protein mitoNEET (Homo sapiens, UniProt Q9NZ45); conditions: cited from earlier work
[11] = test system: mice models of diabetes II; conditions: cited from earlier work
PPARγ = PPARγ (Homo sapiens, UniProt P37231); conditions: cited from earlier work
mitochondrial ATPase = conditions: cited from earlier work
ferroptosis = conditions: cited from earlier work
apoptosis = conditions: cited from earlier work
Y79 = test: Exemplary training dataset: dysfunction D1 in Y79 cultures exposed to inhibitor A8674; type: cell-based, Human
Source text: or more simply by Yt1 . . . i,d1 . . . j,c1 . . . l or still as a vector Y of the form [y1, y2, . . . , yi*j*l]. Thus, a partial excerpt from an exemplary training data derived from input tensor X for system 100 may be given by Table 7 below:
In the above training dataset, each entry of column Y is a value in the vector Y discussed above. Each entry q of column X(qk) with a hat “^” denotes a vector and is an entry in input tensor X, and is a vector of measured quantities [q1, q2, . . . , qk] of the analytes in the biomarker measurement such as those shown in Tables 3-5. In other words, the training dataset consists of measured vectors q at indices i,j,l of tensor X per above explanation. Human retinoblastoma (Y79) from Table 1 above is used as the cell-line from which in vitro cultures are grown.
Note that rows 1-6 correspond to the scenario when no inhibitor was exposed (zero/O state), and unsurprisingly column Y indicates a 0 or a 0% probability that dysfunction D1 is present in the corresponding culture.

[12] = target: human porphobilinogen synthase (PBGS; ALAD) (Homo sapiens, UniProt P13716); conditions: allosteric; cited from earlier work
ADP ribosylation = conditions: cited from earlier work

mitochondrial outer membrane protein mitoNEET, sequence (Q9NZ45 whole entry): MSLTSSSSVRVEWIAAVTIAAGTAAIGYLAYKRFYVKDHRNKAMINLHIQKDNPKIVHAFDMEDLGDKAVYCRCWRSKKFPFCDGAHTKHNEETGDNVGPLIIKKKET
PPARγ, sequence (P37231 whole entry, species assumed): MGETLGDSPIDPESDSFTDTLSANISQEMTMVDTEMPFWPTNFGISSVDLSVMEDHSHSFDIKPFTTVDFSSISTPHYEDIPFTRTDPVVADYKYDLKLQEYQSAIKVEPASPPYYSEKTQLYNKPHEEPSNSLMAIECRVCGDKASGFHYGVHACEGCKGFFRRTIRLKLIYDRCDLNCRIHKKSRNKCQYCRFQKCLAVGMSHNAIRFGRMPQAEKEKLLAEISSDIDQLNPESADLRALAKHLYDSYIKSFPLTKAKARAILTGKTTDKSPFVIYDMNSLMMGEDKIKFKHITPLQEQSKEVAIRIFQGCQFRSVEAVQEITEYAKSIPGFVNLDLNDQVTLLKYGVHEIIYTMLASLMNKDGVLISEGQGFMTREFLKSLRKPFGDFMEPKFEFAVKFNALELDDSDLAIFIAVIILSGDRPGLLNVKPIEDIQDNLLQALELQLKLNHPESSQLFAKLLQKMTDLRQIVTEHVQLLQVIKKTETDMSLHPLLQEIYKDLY
human porphobilinogen synthase (PBGS; ALAD), sequence (P13716 whole entry): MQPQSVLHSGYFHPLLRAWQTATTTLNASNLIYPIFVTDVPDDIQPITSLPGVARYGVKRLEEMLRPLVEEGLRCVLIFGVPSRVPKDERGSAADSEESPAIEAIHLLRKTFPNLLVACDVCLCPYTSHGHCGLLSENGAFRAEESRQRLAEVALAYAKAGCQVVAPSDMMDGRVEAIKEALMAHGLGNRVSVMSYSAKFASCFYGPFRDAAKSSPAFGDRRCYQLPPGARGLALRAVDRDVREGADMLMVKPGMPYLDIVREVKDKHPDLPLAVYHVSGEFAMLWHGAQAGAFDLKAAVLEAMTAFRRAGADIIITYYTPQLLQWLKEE

With CC1(C)Oc2ccc(S(=O)(=O)N3CCCCC3)cc2[C@@H](N(Cc2ncc[nH]2)c2ccc(Cl)cc2)[C@@H]1O.Cl [BM0017, BMS-199264 hydrochloride] as the compound, how does the “effect on the ATP synthase function of FIFO” value (FIFO) read?
Its value is 199624 has no effect on the ATP.

What about the “ATP hydrolase activity of mitochondrial FIFO ATP synthase” value [1] of the same compound?
Its value is “Potently inhibits the ATP”.

And the “depletion of ATP levels” value (isolated rat hearts)?
The value was “blocks depletion of ATP levels,”.

With N#CC(=Cc1ccc(O)cc1)C(=O)O [C2020, α-Cyano-4-hydroxycinnamic acid] as the compound, how does the IC50 [2] read?
The IC50 was 2400 µM.

And the “monocarboxylic acid transport, including lactate and pyruvate transport” value [3]?
The value was “Specific inhibitor of”.

With N#CC(C#N)=NNc1cccc(Cl)c1 [C2759, Carbonyl cyanide 3-chlorophenylhydrazone] as the compound, how does the Cl-/Cl- exchange activities [4] read?
The Cl-/Cl- exchange activities was “hepatic lipase and partially”.

And the “pH gradient-activated Cl- uptake” value [4]?
Its value is “hepatic lipase and partially”.

Which “Mg2+-ATPase activity” value (Mg2+-ATPase) does the source give for N#CC(C#N)=NNc1ccc(OC(F)(F)F)cc1 [C2920, Carbonyl cyanide 4-(trifluoromethoxy)phenylhydrazone] here?
Its value is “[Na+]. FCCP stimulates Mg2+-”.

What about the “effect of selective glutamate agonist NMDA on mitochondrial superoxide production” value [5] of the same compound?
The value was “amyloid production, and mimics”.

What about the “background K+ current” value (background K+ current) of the same compound?
Its value is “It also is reported to inhibit”.

And the inward current (background K+ current)?
Its inward current is “induce a small inward current,”.

What about the β-amyloid production (β-amyloid) of the same compound?
The β-amyloid production was “ATPase activity, inhibits β-”.

What about the “depolarizing plasma and mitochondrial membranes” value [6] of the same compound?
Its value is “depolarizing plasma and”.

Which “energy metabolism of neoplastic cells” value (neoplastic cells) does the source give for O=C(O)c1nn(Cc2ccc(Cl)cc2Cl)c2ccccc12 [L4900, Lonidamine] here?
The value was “Inhibits the energy metabolism”.

Which succinate oxidase (succinate oxidase) does the source give for O=[N+]([O-])c1c(Cl)cccc1-c1c[nH]cc1Cl [P8861, Pyrrolnitrin from Pseudomonas cepacia] here?
The succinate oxidase was “inhibited succinate oxidase,”.

And the NADH oxidase (NADH oxidase)?
Its NADH oxidase is “inhibited succinate oxidase,”.

And the “NADH-cytochrome C reductase” value [7]?
The value was “inhibited succinate oxidase,”.

And the “succinate cythochrome C reductase” value [8]?
Its value is “inhibited succinate oxidase,”.

For C=C(C)[C@H]1Cc2c(ccc3c2O[C@@H]2COc4cc(OC)c(OC)cc4[C@@H]2C3=O)O1 [R8875, Rotenone], which “mitochondrial electron transport at NADH:ubiquinone oxidoreductase” value [9] is on record?
The value was “Inhibitor of mitochondrial”.

Which “ATP hydrolase activity of mitochondrial FIFO ATP synthase” value [1] does the source give for O=C(Oc1cc(S(=O)(=O)c2ccccc2)ccc1[N+](=O)[O-])c1ccc(Cl)cc1 [SML1122, BTB06584] here?
The value was “BTB06584 inhibits the ATP”.

What about the “effect on mitochondrial membrane potential” value (HL-1) of the same compound?
The value was “has no effect on oxygen”.

What about the “effect on oxygen consumption” value (HL-1) of the same compound?
The value was “has no effect on oxygen”.

What does the source list for CCOC(=O)N1CCC(NC(=S)Nc2cc(Cl)cc(Cl)c2)CC1 [SML1280, TT01001]?
binding to mitoNEET [10]: ligands that binds to mitoNEET; glucose intolerance ([11]; mice models of diabetes II): TT01001 improves hyperglycemia,; hyperglycemia ([11]; mice models of diabetes II): TT01001 improves hyperglycemia,; hyperlipidemia ([11]; mice models of diabetes II): TT01001 improves hyperglycemia,; pioglitazone associated weight gain ([11]; mouse, in vivo): anti-diabetic effects without; PPARγ activation (PPARγ): without PPARγ activation.

Which “mitochondrial ATPase and phosphoryl group transfer” value (mitochondrial ATPase) does the source give for CC[C@H]1/C=C/C=C/C[C@@H](C)[C@H](O)[C@@](C)(O)C(=O)[C@@H](C)[C@H](O)[C@@H](C)C(=O)[C@@H](C)[C@H](O)[C@@H](C)/C=C/C(=O)O[C@@H]2[C@H](C)[C@H](CC1)O[C@]1(CC[C@H](C)[C@H](C[C@@H](C)O)O1)[C@H]2C [compound 04876, Oligomycin from Streptomyces diastatochromogenes] here?
The value was “Macrolide antibiotic; inhibits”.

For Cc1c(C)c(O)c(CC[C@](C)(O)CCC[C@H](C)CCC[C@H](C)CCCC(C)C)c(C)c1O [vitamin E hydroquinone], which inhibition of ferroptosis (ferroptosis) is on record?
Its inhibition of ferroptosis is “potent inhibitor”.

What does the source list for “Antimycin A from Streptomyces sp. [A8674]”?
apoptosis (apoptosis): complex III. Induces apoptosis.; Y (probability that dysfunction D1 is present) (Y79; 1 minute, 1 uL): 0%; Y (probability that dysfunction D1 is present) (Y79; 30 minutes, 5 uL): 100% or 1; Y (probability that dysfunction D1 is present) (Y79; 1 hours, 1 uL): 100% or 1; Y (probability that dysfunction D1 is present) (Y79; 5 hours, 1 uL): 100% or 1; Y (probability that dysfunction D1 is present) (Y79; 10 hours, 1 uL): 100% or 1; Y (probability that dysfunction D1 is present) (Y79; 2 days, 1 uL): 100% or 1

With ML-3H2 [M2324] as the compound, how does the “inhibition of human porphobilinogen synthase” value [12] read?
Its value is “hexamer-stabilizing inhibitor”.

With “m-Iodobenzyl-guanidine hemisulfate salt [I9890]” as the compound, how does the ADP ribosylation (ADP ribosylation) read?
Its ADP ribosylation is “Antitumor agent which inhibits”.
